Source: patent publication US12280044B2, “Proteolysis-targeting chimera molecule and preparation method and use thereof” (GUANGZHOU MEDICAL UNIVERSITY, priority 2022, dated 2025)

Columns and labels:
TYR [1] = biological target: T1, TYR (Homo sapiens, UniProt P14679); assay: Performance test: TYR-inhibiting efficiency; assay type: cell-based; parameters: endogenous in cells
T1 sequence (P14679 19-529): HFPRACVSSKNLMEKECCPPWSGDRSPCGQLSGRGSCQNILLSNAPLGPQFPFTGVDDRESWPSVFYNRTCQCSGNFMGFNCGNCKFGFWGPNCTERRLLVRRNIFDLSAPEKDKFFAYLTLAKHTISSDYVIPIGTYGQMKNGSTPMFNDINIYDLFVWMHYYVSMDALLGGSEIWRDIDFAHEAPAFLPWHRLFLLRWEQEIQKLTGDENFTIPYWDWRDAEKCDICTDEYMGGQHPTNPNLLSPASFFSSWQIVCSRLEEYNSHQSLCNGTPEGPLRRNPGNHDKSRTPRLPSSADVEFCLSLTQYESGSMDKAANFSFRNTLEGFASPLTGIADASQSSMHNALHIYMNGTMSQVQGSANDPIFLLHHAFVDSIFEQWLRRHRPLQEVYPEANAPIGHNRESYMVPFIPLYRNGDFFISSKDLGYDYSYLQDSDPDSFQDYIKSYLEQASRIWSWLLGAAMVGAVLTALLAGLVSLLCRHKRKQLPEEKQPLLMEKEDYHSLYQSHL
Protocol: (§1) The cytotoxicity, TYR-inhibiting efficiency, and solubility of the molecule A3 were tested.
The PROTAC molecule of the present application has excellent solubility and safety (IC50>200 μM) and a low effective concentration (1 μM to 10 μM).

zebrafish [2] = assay: Zebrafish experiment: melanin production in the back (gray value); assay type: in vivo
Protocol: (§2) Cultivation conditions for zebrafish and fish eggs: a temperature: 28° C.±1° C.; light: irradiation with a fluorescent lamp; and a light/dark cycle: 14 h light/10 h dark.
1. A specific experimental method was as follows: • (1) In the afternoon of day 1, fish mating was conducted to produce 800 to 1,000 fish eggs in a same batch. […] In the afternoon of day 2, water was replaced by an E3 medium including a sample in a corresponding experimental group. • (3) Every morning thereafter, the original medium was replaced by a fresh E3 medium including a sample in a corresponding experimental group. • (4) After fish came out from an egg membrane, the egg membrane was removed, the plate was washed twice with an E3 medium, and an E3 medium including a sample in a corresponding experimental group was added, where a date on which the fish came out from the egg membrane was recorded as day 0. • (5) From day 1 to day 5, after a medium was changed every morning, 15 fish were randomly selected from each experimental group and tested under a stereo microscope to measure a gray value of a back. Survival rates of zebrafish under different drug treatments were counted.

[3] = Performance test: solubility; assay type: physicochemical; details: organic solvent or mixture; in DMSO
Protocol: as §1

zebrafish [4] = assay: Zebrafish experiment: melanin precipitate after lysis on day 5; assay type: in vivo; details: 10 μM
Protocol: 2. After photographing was completed on day 5, 100 zebrafish were taken from each group (only 80 to 90 live fish were left in the 10 μM arbutin group), transferred to a 1.5 mL EP tube, and washed twice with pure water, then 500 μL of 1 M Tris-HCl with a pH of 8.0 was added, ultrasonic lysis was conducted on ice (40% power, on 3 s/off 2 s per cycle, and ultrasonic time: 10 min), and a resulting lysis system was centrifuged at 12,000 rpm and 4° C. for 15 min to obtain a melanin precipitate.

TYR [5] = biological target: T1, TYR; assay: TYR protein level by western blot in human melanoma cell line MNT-1; assay type: cell-based; parameters: endogenous in cells; host or cells: MNT-1 human melanoma cells; details: MNT-1 cells, 24 h, 0.001-10 μmol/L, WB
Protocol: (§3) The human melanoma cell line MNT-1 was treated for 24 h with the molecule A3 at a concentration gradient, and then a protein sample was collected and tested by WB to determine a protein level of TYR. In the concentration gradient, final concentrations of the molecule A3 were 0.001 μmol/L, 0.01 μmol/L, 0.1 μmol/L, 1 μmol/L, and 10 μmol/L, respectively.

TYR [6] = biological target: T1, TYR; assay: Degradation pathway detection with proteasome inhibitor MG132 in MNT-1 cells (WB of TYR); assay type: cell-based; parameters: endogenous in cells; host or cells: MNT-1 human melanoma cells; details: 1 or 10 μM A3 + 10 μM MG132, 24 h
From the text: A molecular mechanism of the PROTAC molecule to degrade a target protein is as follows: molecular elements at two ends of the PROTAC molecule bind to the target protein and an ubiquitin ligase, respectively, such that the target protein is ubiquitinated and thus degraded by a proteasome. A proteasome inhibitor MG132 was used to determine whether an impact of the PROTAC molecule on a protein level of TYR was based on a proteasome degradation pathway.
A specific treatment method included the following steps: • (1) MNT-1 cells were plated on a 6-well plate and allowed to grow adherently until a cell confluency was 80%. • (2) The cells were treated according to the following groups: • (a) a normal control group; (b) a 1 μM A3 treatment group; (c) a 10 μM A3 treatment group; (d) a 10 μM MG132 treatment group; (e) a 1 μM A3+10 μM MG132 treatment group; and (f) a 10 μM A3+10 μM MG132 treatment group. • (3) 24 h after a treatment, cells in each group were collected and lysed, and a resulting total protein lysate was collected and tested by WB to determine an expression level of TYR.

TYR [7] = biological target: T1, TYR; assay: TYR protein level by western blot in human melanoma cell line A375; assay type: cell-based; parameters: endogenous in cells; host or cells: MNT-1 human melanoma cells; details: A375 cells, 24 h, 0.001-10 μmol/L, WB
Protocol: as §3, with “A375” for “MNT-1”, “western blot (WB)” for “WB”

[8] = Performance test: cytotoxicity; assay type: cell-based
Protocol: as §1

zebrafish [9] = assay: Zebrafish experiment: survival rates under drug treatment; assay type: in vivo
Protocol: as §2
1. A specific experimental method was as follows: • (1) In the afternoon of day 1, fish mating was conducted to produce 800 to 1,000 fish eggs in a same batch. Experimental groups: an untreated group (negative control), a TYR-4 drug group A3 (10 μM), an arbutin group 1 (10 μM), and an arbutin group 2 (20 mM). • (2) In the morning of day 2, fish eggs were collected and dispensed in a 24-well plate with about 10 embryos per well, where 12 wells were set for each treatment group, that is, about 120 embryos were adopted for each treatment group. In the afternoon of day 2, water was replaced by an E3 medium including a sample in a corresponding experimental group. • (3) Every morning thereafter, the original medium was replaced by a fresh E3 medium including a sample in a corresponding experimental group. • (4) After fish came out from an egg membrane, the egg membrane was removed, the plate was washed twice with an E3 medium, and an E3 medium including a sample in a corresponding experimental group was added, where a date on which the fish came out from the egg membrane was recorded as day 0. • (5) From day 1 to day 5, after a medium was changed every morning, 15 fish were randomly selected from each experimental group and tested under a stereo microscope to measure a gray value of a back. Survival rates of zebrafish under different drug treatments were counted.

SMILES	EC50 (TYR [1]) [µM]	inhibitory effect on melanin production in zebrafish (gray value of back) (zebrafish [2]; 10 μM, day 1 to day 5)	effect on melanin production compared with arbutin (zebrafish [2]; same concentration (10 μM))	solubility [3] [mg/mL]	melanin precipitate amount versus untreated group (zebrafish [4])	inhibitory effect on TYR protein level (TYR [5])	degradation effect on TYR after MG132 is added (TYR [6])	inhibitory effect on TYR protein level (TYR [7])	IC50 [8] [µM]	toxic and side effects, death (zebrafish [9]; effective concentration (10 μM))	day on which death occurs (zebrafish [9]; 10 μM) [days]	live fish left (zebrafish [9]; 10 μM, day 5)	survival rate (zebrafish [9]; 10 μM, day 5)	day on which death occurs (zebrafish [9]; 20 mM) [days]	survival (zebrafish [9]; 20 mM, day 5)
O=C1CCC(N2Cc3c(NC(=O)CCCCCCNC(=O)c4cc[nH]c(=S)c4)cccc3C2=O)C(=O)N1 (stereo not shown) [A3]	< 10	significant inhibitory effect on melanin production in zebrafish	better effect than common whitening agents such as arbutin	> 523	significantly smaller than the melanin precipitate amount in the untreated group	has a significant inhibitory effect on TYR in the cell line MNT-1	significantly inhibited after MG132 is added	has an inhibitory effect on TYR in the cell line A375	> 200	does not have any toxic and side effects and does not cause death					
OC[C@H]1O[C@@H](Oc2ccc(O)cc2)[C@H](O)[C@@H](O)[C@@H]1O [arbutin]					significantly smaller than the melanin precipitate amount in the untreated group						4	80 to 90	about 80%	3	basically dies
